# In ChEMBL document CHEMBL1150116, “Huperzine R, a novel 15-carbon Lycopodium alkaloid from Huperzia serrata” (J Nat Prod, 2002):
# Molecular target: Acetylcholinesterase (Homo sapiens) (UniProt P22303)
# Assay: Inhibition of AChE at 95 umol
# Acetylcholinesterase (Homo sapiens), sequence (P22303 whole entry): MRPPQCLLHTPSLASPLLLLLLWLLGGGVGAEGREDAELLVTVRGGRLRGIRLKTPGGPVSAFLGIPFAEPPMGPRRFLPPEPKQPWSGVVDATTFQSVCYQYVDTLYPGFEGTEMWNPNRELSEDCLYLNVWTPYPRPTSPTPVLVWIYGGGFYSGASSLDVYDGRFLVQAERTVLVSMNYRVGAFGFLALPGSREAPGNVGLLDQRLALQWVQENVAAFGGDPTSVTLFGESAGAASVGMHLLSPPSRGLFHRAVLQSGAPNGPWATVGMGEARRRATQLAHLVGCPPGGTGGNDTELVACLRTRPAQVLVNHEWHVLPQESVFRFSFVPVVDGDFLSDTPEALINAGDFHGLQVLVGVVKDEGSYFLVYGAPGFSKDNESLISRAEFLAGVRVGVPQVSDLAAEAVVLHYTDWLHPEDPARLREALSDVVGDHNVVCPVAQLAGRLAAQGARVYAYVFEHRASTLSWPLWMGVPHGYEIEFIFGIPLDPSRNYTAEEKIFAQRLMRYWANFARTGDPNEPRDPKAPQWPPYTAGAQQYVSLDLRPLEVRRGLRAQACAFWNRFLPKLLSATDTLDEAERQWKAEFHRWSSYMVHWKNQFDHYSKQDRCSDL
structure (smiles),measurement,value
C[C@H]1CC(=O)N2CCCC3=C(C1)C(=O)O[C@H]3CCC2,inhibition,27%
